Laboratory results published in patent publication US20230113609A1, “SSTR5 ANTAGONISTS” (Kallyope, Inc., priority 2019, published 2023).

target: T1, human SSTR5 (Homo sapiens, UniProt P35346); assay: Inositol phosphate accumulation assay (IP1 HTRF, antagonist mode); type: cell-based; conditions: CHO-K1 cells co-expressing human SSTR5 with Gqi5, SST28 agonist at concentration generating 90% of full activation
T1 construct: expressed in transfected cells
In short: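 CHO-K1 cells stably co-expressing human SSTR5 and chimeric Gqi5 were pre-incubated with compound 15 minutes at 37° C, then stimulated with SST28 (30 nM as added, about EC90) for 90 minutes. IP1 read by HTRF (665/620 nm). % inhibition normalized to Max/Min controls; IC50 and maximal inhibition from 4-parameter fit.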

T1 sequence (P35346 whole entry): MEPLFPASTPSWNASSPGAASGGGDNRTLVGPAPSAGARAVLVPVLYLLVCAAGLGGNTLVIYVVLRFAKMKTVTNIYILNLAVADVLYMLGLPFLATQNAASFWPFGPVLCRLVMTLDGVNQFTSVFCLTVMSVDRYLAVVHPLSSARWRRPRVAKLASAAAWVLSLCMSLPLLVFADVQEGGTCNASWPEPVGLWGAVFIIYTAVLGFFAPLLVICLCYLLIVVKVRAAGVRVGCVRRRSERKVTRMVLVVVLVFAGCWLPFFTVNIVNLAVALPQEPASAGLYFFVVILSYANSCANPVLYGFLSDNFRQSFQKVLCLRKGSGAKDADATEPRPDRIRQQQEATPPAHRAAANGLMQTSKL

Row | Structure (SMILES) | IC50 [nM]
1 | CCOc1cc(-c2ccc(F)cn2)c(C2CC2)cc1CN1CCC2(CC1)CN([C@H]1CC[C@](C)(C(=O)NCCOCCO)CC1)C(=O)O2 [compound 90] | ≤ 100
2 | CCOc1cc(-c2ccc(F)cc2)c(C2CC2)cc1CN1CCC2(CC1)CN(c1ccc(S(=O)(=O)NCCOCCO)cc1)C(=O)O2 [Example 81, 4-(8-((2-cyclopropyl-5-ethoxy-4′-fluoro-[1,1-biphenyl]-4-yl)methyl)-2-oxo-1-oxa-3,8-diazaspiro[4.5]decan-3-yl)-N-(2-(2-hydroxyethoxy)ethyl)benzenesulfonamide] | ≤ 100
3 | CCOc1cc(C(=O)OC)c(C2CC2)cc1CN1CCC2(CC1)CC(=O)N(c1ccc(C(=O)NCCCC(=O)O)cc1)C2 [Example 23, 4-(4-(8-(5-cyclopropyl-2-ethoxy-4-(methoxycarbonyl)benzyl)-3-oxo-2,8-diazaspiro[4.5]decan-2-yl)benzamido) butanoic acid] | > 5000
4 | CCOc1cc(C(=O)OC)c(C2CC2)cc1CN1CCC2(CC1)CN(c1ccc(C(=O)NCCCNC(N)=O)cc1)C(=O)O2 [Example 57, methyl 2-cyclopropyl-5-ethoxy-4-((2-oxo-3-(4-((3-ureidopropyl)carbamoyl)phenyl)-1-oxa-3,8-diazaspiro [4.5]decan-8-yl)methyl)benzoate] | ≤ 100
5 | CCOc1cc(-c2ccc(F)cc2)c(C2CC2)cc1CN1CCC2(CC1)CN(c1ccc(C(=O)NCCOCCOCCO)cc1)C(=O)N2 [Example 70, 4-(8-((2-cyclopropyl-5-ethoxy-4′-fluoro-[1,1′-biphenyl]-4-yl)methyl)-2-oxo-1,3,8-triazaspiro[4.5]decan-3-yl)-N-(2-(2-(2-hydroxyethoxy)ethoxy)ethyl)benzamide] | ≤ 100
6 | CCOc1cc(C(=O)OC)c(C2CC2)cc1CN1CCN(C(=O)Oc2cccc(C(=O)NC[C@H](O)[C@@H](O)[C@H](O)[C@H](O)CO)c2)CC1 [Example 98] | 100 to 1000
7 | CCOc1cc(C(=O)OC)c(C2CC2)cc1CN1CCC2(CC1)CC(=O)N(c1ccc(C(=O)NCCCO)cc1)C2 [Example 27, methyl 2-cyclopropyl-5-ethoxy-4-((2-(4-((3-hydroxypropyl)carbamoyl)phenyl)-3-oxo-2,8-diazaspiro[4.5]decan-8-yl)methyl)benzoate] | > 5000
8 | CCOc1cc(C(=O)OC)c(C2CC2)cc1CN1CCC2(CC1)CC(=O)N(c1ccc(C(=O)N3CC(CO)(CO)C3)cc1)C2 [Example 42, methyl 4-((2-(4-(3,3-bis(hydroxymethyl)azetidine-1-carbonyl)phenyl)-3-oxo-2,8-diazaspiro[4.5]decan-8-yl)methyl)-2-cyclopropyl-5-ethoxybenzoate] | 1000 to 5000
9 | CCOc1cc(C(=O)OC)c(C2CC2)cc1CN1CCC2(CC1)CN(c1ccc(C(=O)NCCO)cc1)C(=O)N2 [Example 75, methyl 2-cyclopropyl-5-ethoxy-4-((3-(4-((2-hydroxyethyl)carbamoyl)phenyl)-2-oxo-1,3,8-triazaspiro[4.5]decan-8-yl)methyl)benzoate] | 100 to 1000
10 | CCOc1cc(C(=O)OC)c(C2CC2)cc1CN1CCN(C(=O)Nc2ccc(C(=O)NC[C@H](O)[C@@H](O)[C@H](O)[C@H](O)CO)cc2)CC1 [compound 93, methyl 2-cyclopropyl-5-ethoxy-4-[[4-[[4-[[(2S,3R,4R,5R)-2,3,4,5,6-pentahydroxyhexyl]carbamoyl]phenyl]carbamoyl]piperazin-1-yl]methyl]benzoate] | 1000 to 5000

tested on: not listed separately; assay: Oral bioavailability of the compounds after oral dosing in rat; conditions: in vivo, Sprague Dawley rats, IV 1 mg/kg, PO 5 mg/kg, vehicle 5% DMSO + 30% PEG400 + 65% water
Procedure: Oral bioavailability of the compounds was determined in Sprague Dawley rats (Compound 90) or Wistar Han rats (Compound 81). The table below summarizes the results. Each compound was dosed intravenously (IV) at 1 mg/kg and orally (PO) 5 mg/kg using the respective vehicles listed below. The compounds display low (<10%) oral bioavailability (F%).

Row | Structure (SMILES) | bioavailability [%]
11 | CCOc1cc(-c2ccc(F)cn2)c(C2CC2)cc1CN1CCC2(CC1)CN([C@H]1CC[C@](C)(C(=O)NCCOCCO)CC1)C(=O)O2 [compound 90] | 2.6

same assay, conditions: in vivo, Wistar Han rats, IV 1 mg/kg, PO 5 mg/kg, vehicle 5% DMSO + 30% PEG400 + 65% water

Row | Structure (SMILES) | bioavailability [%]
12 | CCOc1cc(-c2ccc(F)cc2)c(C2CC2)cc1CN1CCC2(CC1)CN(c1ccc(S(=O)(=O)NCCOCCO)cc1)C(=O)O2 [Example 81, 4-(8-((2-cyclopropyl-5-ethoxy-4′-fluoro-[1,1-biphenyl]-4-yl)methyl)-2-oxo-1-oxa-3,8-diazaspiro[4.5]decan-3-yl)-N-(2-(2-hydroxyethoxy)ethyl)benzenesulfonamide] | 7
